What was measured:
Type in all cases: cell-based
[1] = target: T1, STAT3 (Homo sapiens, UniProt P40763); assay: STAT3 reporter gene assay (luciferase), LNCaP stable cell line (pSTAT3-TA-luc), IL-6 stimulation
T1 construct: plasmid pSTAT3-TA-luc), which contains a stably operating STAT3 promoter; endogenous in cells
Method: 1-1) Experiment on the Inhibition of STAT3 Activity
A human prostate cancer cell line (LNCaP stable cell line; plasmid pSTAT3-TA-luc), which contains a stably operating STAT3 promoter, was cultured in RPMI1640 medium (Cat No. 11875, Life Technologies) containing 10% fetal bovine serum (FBS) (Cat No. SH30396, Thermo Scientific) and 150 μg/mL G-418 solution (Cat No. 04 727 894 001, Roche). The reporter gene assay using LNCaP stable cell line was performed in RPMI1640 medium containing 3% DCC-FBS without G-418 solution. LNCaP stable cells were plated in two (2) white 96-well plates with 30,000 cells/50 μL in each well. The cells were cultured at 37° C., under 5% CO2 for 24 hours, and then treated with the compounds listed in Examples which were diluted in various concentrations. Subsequently, IL-6 was added to each well with a final concentration of 10 ng/mL. Upon completion of the treatment with the compounds and IL-6, the cells were cultured at 37° C., under 5% CO2 for from 24 to 48 hours. The plates were observed under microscope and drug precipitation and particular findings were investigated and recorded.
The luciferase assay and the cell viability assay were performed respectively with one of the two plates. For the luciferase assay, the liquid media in the 96-well plate was removed, and then, 20 μL of passive cell lysis buffer was added to each well. After shaking the plate for 30 minutes, luciferase activities of each well were measured in a PHERAstar™ microplate reader (BMG LABTECH) using a luciferase assay system (Cat No. E1501, Promega). For the cell viability assay, the 96-well plate was placed at room temperature for 30 minutes, added with 20 μL/well of CellTiter-Glo solution (Cat No. G7573, Promega), and shaken for 10 minutes in order to measure cytotoxicity caused by the compounds listed in Examples with a PHERAstar™ microplate reader (BMG LABTECH). Wells without 0.1% DMSO and stimulation were used as a negative control and wells with 0.1% DMSO and stimulation were used as a positive control.

[2] = system: LNCaP; assay: Cell growth inhibition assay, prostate cancer cell line LNCaP (medium with 10 ng/mL IL-6); conditions: Homo sapiens, medium supplemented with 10 ng/mL of IL-6, 10,000 cells/well
Method: (§1) The inhibitory effects of the compounds of the present invention against the growth of cancer cells were evaluated as shown below. The cancer cell lines including stomach cancer cell line (AGS), breast cancer cell lines (MDA-MB-231, MDA-MB-468, and BT-549), prostate cancer cell lines (LNCaP and DU-145), colon cancer cell line (HCT116), ovarian cancer cell line (SW626), liver cancer cell line (Hep3B), kidney cancer cell line (ACHN), lung cancer cell line (NCI-H23) and blood cancer cell lines (HEL92.1.7 and U266) were cultured under the protocol provided by each supplier. A medium supplemented with 10 ng/mL of IL-6 was used for LNCaP, a prostate cancer cell line, when treated with a drug. Each type of cells to be used in experiments were sub-cultured in a 96-well plate by counting the exact number of cells using Tali™ Image-based Cytometer (Life Technologies). In a 96-well plate, AGS, HCT116, and DU-145 were employed with 3,000 cells/well; NCI-H23, SW626, Hep3B, ACHN, BT-549, MDA-MB-231, HEL92.1.7, and U266 were employed with 5,000 cells/well; and LNCaP and MDA-MB-468 were employed with 10,000 cells/well. The cells were treated with the compounds listed in Examples which were diluted in various concentrations. Upon completion of the compounds treatment, AGS, HCT116, SW626, DU145, NCI-H23, Hep3B, ACHN, BT-549, LNCaP, HEL92.1.7, and U266 cells were cultured at 37° C. under 5% CO2 for from 72 to 96 hours, and MDA-MB-231 and MDA-MB-468 cells were cultured at 37° C. in air for from 72 to 96 hours. Subsequently, the cells were observed under microscope and drug precipitation and particular findings were investigated and recorded. And then, the 96-well plate was placed at room temperature for 30 minutes, added with 20 μL/well of CellTiter-Glo solution (Cat No. G7573, Promega) and shaken for 10 minutes, followed by being subjected to the measurement using PHERAstar™ microplate reader (BMG LABTECH) according to the supplier's general luminometer protocol. Wells where only culture liquid added without cell plating were used as a negative control, whereas wells where culture liquid containing 0.1% DMSO instead of the compounds listed in Examples were used as a positive control.

[3] = system: DU-145; assay: Cell growth inhibition assay, prostate cancer cell line DU-145; conditions: Homo sapiens, DU-145 prostate cancer cell line
Method: as §1

T1 sequence (P40763 whole entry): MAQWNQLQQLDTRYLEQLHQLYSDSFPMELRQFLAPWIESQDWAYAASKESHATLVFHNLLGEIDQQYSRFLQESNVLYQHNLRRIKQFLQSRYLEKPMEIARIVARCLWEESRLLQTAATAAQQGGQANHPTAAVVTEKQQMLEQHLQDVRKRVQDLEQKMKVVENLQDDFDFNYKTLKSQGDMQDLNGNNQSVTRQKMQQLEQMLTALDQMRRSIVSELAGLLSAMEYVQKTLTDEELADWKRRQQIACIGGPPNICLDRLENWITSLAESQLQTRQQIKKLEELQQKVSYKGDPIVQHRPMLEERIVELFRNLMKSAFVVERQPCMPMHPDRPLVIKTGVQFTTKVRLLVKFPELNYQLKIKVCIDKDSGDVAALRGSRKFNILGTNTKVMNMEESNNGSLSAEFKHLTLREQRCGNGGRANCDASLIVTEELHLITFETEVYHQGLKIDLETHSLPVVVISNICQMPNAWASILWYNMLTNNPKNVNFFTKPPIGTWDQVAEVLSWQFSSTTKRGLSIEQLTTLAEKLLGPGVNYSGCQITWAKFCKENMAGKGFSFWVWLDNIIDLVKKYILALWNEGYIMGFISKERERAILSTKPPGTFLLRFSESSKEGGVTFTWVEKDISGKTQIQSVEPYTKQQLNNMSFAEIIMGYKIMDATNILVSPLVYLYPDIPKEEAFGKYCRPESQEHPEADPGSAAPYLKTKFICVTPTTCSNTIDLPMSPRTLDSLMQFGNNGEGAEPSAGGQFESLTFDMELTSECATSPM

| SMILES | IC50 [1] [µM] | IC50 [2] [µM] | IC50 [3] [µM] |
| --- | --- | --- | --- |
| CCOc1cc(OC(F)(F)F)cc(C(C)(C)c2cc(Br)cc(NC(=O)c3cc4nc(NS(C)(=O)=O)ccc4s3)c2)c1 [Example 60, N-(3-bromo-5-(2-(3-ethoxy-5-(trifluoromethoxy)phenyl)propan-2-yl)phenyl)-5-(methylsulfonamido)thieno[3,2-b]pyridine-2-carboxamide] | 0.063 | 0.37 | 0.17 |
| CC(C)(c1cc(Cl)cc(NC(=O)c2cc3cc(NS(C)(=O)=O)ccc3s2)c1)c1cc(OC(F)(F)F)ccc1F [Example 62, N-(3-chloro-5-(2-(2-fluoro-5-(trifluoromethoxy)phenyl)propan-2-yl)phenyl)-5-(methylsulfonamido)benzo[b]thiophene-2-carboxamide] | 0.011 | 0.075 | 0.016 |
| COc1cc(OC(F)(F)F)cc(C(C)(C)c2cc(F)cc(NC(=O)c3cc4cc(NS(C)(=O)=O)ccc4s3)c2)c1 [Example 63, N-(3-fluoro-5-(2-(3-methoxy-5-(trifluoromethoxy)phenyl)propan-2-yl)phenyl)-5-(methylsulfonamido)benzo[b]thiophene-2-carboxamide] | 0.034 | 0.037 | 0.01 |
| CC(C)(c1cccc(F)c1)c1cc(Cl)cc(NC(=O)c2cc3cc(NS(C)(=O)=O)ccc3s2)c1 [Example 65, N-(3-chloro-5-(2-(3-fluorophenyl)propan-2-yl)phenyl)-5-(methylsulfonamido)benzo[b]thiophene-2-carboxamide] | 0.064 |  | 0.005 |
| CC(C)Oc1cc(OC(F)(F)F)cc(C(C)(C)c2cc(Cl)cc(NC(=O)c3cn4cc(NS(C)(=O)=O)ccc4n3)c2)c1 [Example 74, N-(3-chloro-5-(2-(3-isopropoxy-5-(trifluoromethoxy)phenyl)propan-2-yl)phenyl)-6-(methylsulfonamido)imidazo[1,2-a]pyridine-2-carboxamide] | 2.7 | 6.6 | 2.6 |
| CC(C)(c1cc(Cl)cc(NC(=O)c2cc3cc(NS(C)(=O)=O)ccc3s2)c1)c1cc(OC2COC2)cc(OC(F)(F)F)c1 [Example 76, N-(3-chloro-5-(2-(3-(oxetan-3-yloxy)-5-(trifluoromethoxy)phenyl)propan-2-yl)phenyl)-5-(methylsulfonamido)benzo[b]thiophene-2-carboxamide] | 3 | 0.23 | 0.34 |
| C=CCOc1cc(OC(F)(F)F)cc(C(C)(C)c2cc(Cl)cc(NC(=O)c3cc4cc(NS(C)(=O)=O)ccc4s3)c2)c1 [Example 78, N-(3-(2-(3-(allyloxy)-5-(trifluoromethoxy)phenyl)propan-2-yl)-5-chlorophenyl)-5-(methylsulfonamido)benzo[b]thiophene-2-carboxamide] | 0.017 | 0.038 | 0.009 |
| CC(C)Oc1cc(OC(F)(F)F)cc(C(C)(C)c2cc(Cl)cc(NC(=O)c3cc4c(s3)CCN(S(C)(=O)=O)C4)c2)c1 [Example 97, N-(3-chloro-5-(2-(3-isopropoxy-5-(trifluoromethoxy)phenyl)propan-2-yl)phenyl)-5-(methylsulfonyl)-4,5,6,7-tetrahydrothieno[3,2-c]pyridine-2-carboxamide] | 2.1 |  | 0.17 |
| CC(C)Oc1cc(OC(F)(F)F)cc(C(C)(C)c2cc(Cl)cc(NC(=O)c3cc(NS(C)(=O)=O)cs3)c2)c1 [Example 102, N-(3-chloro-5-(2-(3-isopropoxy-5-(trifluoromethoxy)phenyl)propan-2-yl)phenyl)-4-(methylsulfonamido)thiophene-2-carboxamide] | 4.6 |  | > 1.1 |
| CC(C)Oc1cc(OC(F)(F)F)cc(C(C)(C)c2cc(Br)cc(NC(=O)c3cc4cc(OP(=O)(O)O)ccc4s3)c2)c1 [Example 192, 2-((3-bromo-5-(2-(3-isopropoxy-5-(trifluoromethoxy)phenyl)propan-2-yl)phenyl)carbamoyl)benzo[b]thiophen-5-yl dihydrogen phosphate] | 0.75 |  |  |
| CS(=O)(=O)Nc1ccc2[nH]c(C(=O)Nc3cccc(-c4ccccc4C(F)(F)F)c3)cc2c1 [Example 259, 5-(methylsulfonamido)-N-(2′-(trifluoromethyl)-[1,1′-biphenyl]-3-yl)-1H-indole-2-carboxamide] | 1.1 | 2 |  |
| CS(=O)(=O)Nc1cc2cc(C(=O)Nc3cc(Cl)nc(Oc4ccc(Cl)cc4)c3)sc2cc1Cl [Example 490, 6-chloro-N-(2-chloro-6-(4-chlorophenoxy)pyridin-4-yl)-5-(methylsulfonamido)benzo[b]thiophene-2-carboxamide] | 0.016 |  |  |
| CS(=O)(=O)Nc1ccc2sc(C(=O)Nc3cc(Cl)nc(Oc4ccc(Cl)nc4)c3)cc2c1 [Example 491, N-(2-chloro-6-((6-chloropyridin-3-yl)oxy)pyridin-4-yl)-5-(methylsulfonamido)benzo[b]thiophene-2-carboxamide] | 0.13 |  |  |
| CS(=O)(=O)Nc1cc2cc(C(=O)Nc3cc(Cl)nc(Oc4ccc(Cl)nc4)c3)sc2cc1Cl [Example 492] | 0.008 |  |  |
| CS(=O)(=O)Nc1ccc2sc(C(=O)Nc3cc(Cl)nc(Oc4ccc(C(F)(F)F)nc4)c3)cc2c1 [Example 493, N-(2-chloro-6-((6-(trifluoromethyl)pyridin-3-yl)oxy)pyridin-4-yl)-5-(methylsulfonamido)benzo[b]thiophene-2-carboxamide] | 0.14 |  |  |
| CS(=O)(=O)Nc1cc2cc(C(=O)Nc3cc(Cl)nc(Oc4ccc(C(F)(F)F)nc4)c3)sc2cc1Cl [Example 494, 6-chloro-N-(2-chloro-6-((6-(trifluoromethyl)pyridin-3-yl)oxy)pyridin-4-yl)-5-(methylsulfonamido)benzo[b]thiophene-2-carboxamide] | 0.018 |  |  |
| CS(=O)(=O)Nc1ccc2sc(C(=O)Nc3cc(Cl)nc(Oc4ccc(C(F)(F)F)cc4)c3)cc2c1 [Example 495, N-(2-chloro-6-(4-(trifluoromethyl)phenoxy)pyridin-4-yl)-5-(methylsulfonamido)benzo[b]thiophene-2-carboxamide] | 0.08 |  |  |
| CS(=O)(=O)Nc1cc2cc(C(=O)Nc3cc(Cl)nc(Oc4ccc(C(F)(F)F)cc4)c3)sc2cc1Cl [Example 496, 6-chloro-N-(2-chloro-6-(4-(trifluoromethyl)phenoxy)pyridin-4-yl)-5-(methylsulfonamido)benzo[b]thiophene-2-carboxamide] | 0.009 |  |  |
| COc1cc2sc(C(=O)Nc3cc(Cl)cc(C(C)(C)c4ccc(Cl)cc4)c3)cc2cc1NS(C)(=O)=O [Example 497, N-(3-chloro-5-(2-(4-chlorophenyl)propan-2-yl)phenyl)-6-methoxy-5-(methylsulfonamido)benzo[b]thiophene-2-carboxamide] | 0.005 |  |  |
| COc1cc2sc(C(=O)Nc3cc(Cl)cc(Oc4ccc(Cl)cc4)c3)cc2cc1NS(C)(=O)=O [Example 498, N-(3-chloro-5-(4-chlorophenoxy)phenyl)-6-methoxy-5-(methylsulfonamido)benzo[b]thiophene-2-carboxamide] | 0.06 |  |  |

— US10562912B2 (C&C Research Laboratories, priority 2013, dated 2020)
